Assay results from patent US10351500B2, “Method of using of dihydro-resveratrol or its stilbenoid derivatives and/or chemical variants as antimicrobial agents” (Hong Kong Baptist University, priority 2015, dated 2019).
Where two headings read alike, the source gives them in different places.

Key:
[1] = system: Streptococcus sobrinus; assay: anti-bacterial growth inhibition, S. sobrinus; format: cell-based; settings: Streptococcus sobrinus; for inhibition at 25 µM: read-out: Inhibition rate (25 μM); for inhibition at 50 µM: read-out: Inhibition rate (50 μM); for inhibition at 100 µM: read-out: Inhibition rate (100 μM)
Method: (§1) Evaluation of anti-bacterial activity. In a single well of the 96-well microplate, 10 μL of the testing compound is added into 190 μL of growth medium growth medium (BBL™ Brain Heart Infusion) containing an overnight culture of Streptococcus mutans or Streptococcus sobrinus at a density of approximately 5×10^5 CFU. The testing compounds include dihydro-resveratrol and DR1 to DR11. Wells incubated with 10 μL 0.5% DMSO only (i.e. no testing compound) are served as the experimental control of bacterial growth whilst those incubated with growth medium only (i.e. no bacteria) are served as the negative control. […] The percentage of growth inhibition of S. mutans by the different concentrations of testing compounds is shown in Table 12 whereas the percentage of growth inhibition of S. sobrinus is shown in Table 13. The images of S. mutans culture are captured post treatment of dihydro-resveratrol (100 μM) and DR8 (100 μM) when compared to the growth of experimental control and negative control (FIG. 31).

[2] = system: Trichophyton rubrum; assay: anti-fungal growth inhibition, T. rubrum; format: cell-based; settings: Trichophyton rubrum, 168 h; for inhibition at 25 µM: read-out: Inhibition rate (25 μM); for inhibition at 50 µM: read-out: Inhibition rate (50 μM); for inhibition at 100 µM: read-out: Inhibition rate (100 μM)
Method: (§2) Evaluation of anti-fungal activity. In a single well of the 96-well microplate, 10 μL of the testing compound is added into 190 μL of growth medium (Difco™ YM) containing an overnight culture of Trichophyton rubrum or Trichophyton mentagrophytes at a density of approximately 5×10^5 CFU. The testing compounds include dihydro-resveratrol and DR1 to DR11. Wells incubated with 10 μL 0.5% DMSO only (i.e. no testing compound) are served as the experimental control of fungal growth whilst those incubated with growth medium only (i.e. no fungi) are served as the negative control. […] The percentage of growth inhibition of T. mentagrophytes by the different concentrations of testing compounds is shown in Table 10 whilst the percentage of growth inhibition of T. rubrum is shown in Table 11. The images of T. mentagrophytes culture are captured post treatment of dihydro-resveratrol (100 μM) and DR8 (100 μM) when compared to the growth of experimental control and negative control (FIG. 30).

[3] = ABTS radical decolorization assay (antioxidant capacity); format: biochemical; settings: 15 min, 734 nm
[4] = system: Streptococcus mutans; assay: anti-bacterial growth inhibition, S. mutans; format: cell-based; settings: Streptococcus mutans; for inhibition at 25 µM: read-out: Inhibition rate (25 μM); for inhibition at 50 µM: read-out: Inhibition rate (50 μM); for inhibition at 100 µM: read-out: Inhibition rate (100 μM)
Method: as §1

[5] = system: Trichophyton mentagrophytes; assay: anti-fungal growth inhibition, T. mentagrophytes; format: cell-based; settings: Trichophyton mentagrophytes, 168 h; for inhibition at 25 µM: read-out: Inhibition rate (25 μM); for inhibition at 50 µM: read-out: Inhibition rate (50 μM); for inhibition at 100 µM: read-out: Inhibition rate (100 μM)
Method: as §2

## O=C(Cc1ccccc1)Oc1ccc(CCc2cc(OC(=O)Cc3ccccc3)cc(OC(=O)Cc3ccccc3)c2)cc1 [DR10]
[1]; 10 h
  inhibition at 25 µM: 13.8%
  inhibition at 50 µM: 11.3%
  inhibition at 100 µM: 15.8%
[2]
  inhibition at 25 µM: 8.53%
  inhibition at 50 µM: 6.36%
  inhibition at 100 µM: 10.7%
[3]
  Trolox equivalent (mg), antioxidant capacity: 0 mg
[4]; 10 h
  inhibition at 25 µM: 3.42%
  inhibition at 50 µM: 3.56%
  inhibition at 100 µM: 2.44%
[5]
  inhibition at 25 µM: 3.14%
  inhibition at 50 µM: 12.6%
  inhibition at 100 µM: 20.9%

## CC(C)(C)C(=O)Oc1ccc(CCc2cc(OC(=O)C(C)(C)C)cc(OC(=O)C(C)(C)C)c2)cc1 [DR11]
[1]; S. sobrinus, 25 μM, 10 hours, 30° C., OD 600 nm
  inhibition at 25 µM: 10.5%
[1]; S. sobrinus, 50 μM, 10 hours, 30° C., OD 600 nm
  inhibition at 50 µM: 12.6%
[1]; S. sobrinus, 100 μM, 10 hours, 30° C., OD 600 nm
  inhibition at 100 µM: 0.18%
[2]; T. rubrum, 25 μM, one week, 30° C., OD 510 nm
  inhibition at 25 µM: 8.1%
[2]; T. rubrum, 50 μM, one week, 30° C., OD 510 nm
  inhibition at 50 µM: 7.58%
[2]; T. rubrum, 100 μM, one week, 30° C., OD 510 nm
  inhibition at 100 µM: 9.54%
[3]
  Trolox equivalent (mg), antioxidant capacity: 0 mg
[4]; S. mutans, 25 μM, 10 hours, 30° C., OD 600 nm
  inhibition at 25 µM: 5.49%
[4]; S. mutans, 50 μM, 10 hours, 30° C., OD 600 nm
  inhibition at 50 µM: 6.86%
[4]; S. mutans, 100 μM, 10 hours, 30° C., OD 600 nm
  inhibition at 100 µM: 4.13%
[5]; T. mentagraphytes, 25 μM, one week, 30° C., OD 510 nm
  inhibition at 25 µM: 13.1%
[5]; T. mentagraphytes, 50 μM, one week, 30° C., OD 510 nm
  inhibition at 50 µM: 13.4%
[5]; T. mentagraphytes, 100 μM, one week, 30° C., OD 510 nm
  inhibition at 100 µM: 9.36%
